Reference: the NIST ThermoML archive (doi:10.1021/acs.jced.5b00813)

Assays:
[1] = excess molar enthalpy (molar enthalpy of mixing); xn = mol fraction of the nth substance listed; conditions: 298.15 K, 100 kPa, Liquid, Calvet calorimetry
[2] = xn = mol fraction of the nth substance listed; conditions: 298.15 K, 100 kPa, Liquid, Vibrating tube method
[3] = 298.15 K; 100 kPa; Liquid; Vibrating tube method
[4] = refractive index (Na D-line) (dimensionless); conditions: 298.15 K; 101.33 kPa; Liquid; Standard Abbe refractometry

CCCC(=O)OC [methyl butanoate] + CCCCCCCC
Conditions	excess molar enthalpy [kcal/mol]	mass density [kg/m3]
[1], x2 = 0.0438	0.0509	–
[1], x2 = 0.0922	0.0987	–
[1], x2 = 0.144	0.144	–
[1], x2 = 0.1978	0.184	–
[1], x2 = 0.2521	0.218	–
[1], x2 = 0.3043	0.244	–
[1], x2 = 0.3543	0.264	–
[1], x2 = 0.403	0.278	–
[1], x2 = 0.4321	0.286	–
[1], x2 = 0.4779	0.291	–
[1], x2 = 0.5368	0.288	–
[1], x2 = 0.6033	0.276	–
[1], x2 = 0.676	0.251	–
[1], x2 = 0.757	0.21	–
[1], x2 = 0.8413	0.153	–
[1], x2 = 0.9231	0.0865	–
[2], x2 = 0	–	892.34
[2], x2 = 0.059	–	875.04
[2], x2 = 0.1109	–	860.65
[2], x2 = 0.152	–	849.82
[2], x2 = 0.2051	–	836.56
[2], x2 = 0.2557	–	824.52
[2], x2 = 0.2992	–	814.89
[2], x2 = 0.3501	–	803.53
[2], x2 = 0.4045	–	792.24
[2], x2 = 0.4516	–	782.9
[2], x2 = 0.4978	–	774.12
[2], x2 = 0.5469	–	765.18
[2], x2 = 0.5862	–	758.27
[2], x2 = 0.6551	–	746.75
[2], x2 = 0.6989	–	739.74
[2], x2 = 0.7471	–	732.42
[2], x2 = 0.7931	–	725.7
[2], x2 = 0.8428	–	718.65
[2], x2 = 0.9009	–	710.74
[2], x2 = 0.9367	–	706.37
[2], x2 = 0.9651	–	702.84
[2], x2 = 0.9655	–	702.79

COC(C)=O [methyl ethanoate] + CCCCC(=O)OC
Conditions	mass density [kg/m3]
[2], x2 = 0	927.16

COC(C)=O [methyl ethanoate] + CCCC(=O)OC
Conditions	mass density [kg/m3]
[2], x2 = 0	927.16

COC(C)=O [methyl ethanoate] + CC(C)CC(C)(C)C
Conditions	excess molar enthalpy [kcal/mol]	mass density [kg/m3]
[1], x2 = 0.02	0.037	–
[1], x2 = 0.0525	0.0989	–
[1], x2 = 0.0892	0.158	–
[1], x2 = 0.1241	0.205	–
[1], x2 = 0.1687	0.25	–
[1], x2 = 0.2084	0.291	–
[1], x2 = 0.256	0.331	–
[1], x2 = 0.3079	0.369	–
[1], x2 = 0.3608	0.397	–
[1], x2 = 0.3915	0.409	–
[1], x2 = 0.4323	0.421	–
[1], x2 = 0.4764	0.428	–
[1], x2 = 0.5406	0.42	–
[1], x2 = 0.6163	0.393	–
[1], x2 = 0.6888	0.348	–
[1], x2 = 0.7833	0.275	–
[1], x2 = 0.8597	0.189	–
[1], x2 = 0.9422	0.0851	–
[2], x2 = 0	–	927.16
[2], x2 = 0.0375	–	906.89
[2], x2 = 0.1025	–	876.58
[2], x2 = 0.1652	–	851.09
[2], x2 = 0.1775	–	846.59
[2], x2 = 0.2189	–	832.07
[2], x2 = 0.2615	–	818.03
[2], x2 = 0.302	–	805.95
[2], x2 = 0.3902	–	782.41
[2], x2 = 0.4061	–	778.52
[2], x2 = 0.4249	–	774.09
[2], x2 = 0.4627	–	765.54
[2], x2 = 0.5239	–	752.92
[2], x2 = 0.5411	–	749.57
[2], x2 = 0.61	–	737.18
[2], x2 = 0.6612	–	728.76
[2], x2 = 0.6786	–	726.1
[2], x2 = 0.7359	–	717.6
[2], x2 = 0.8086	–	708.07
[2], x2 = 0.8803	–	699.86
[2], x2 = 0.9521	–	692.07

COC(C)=O [methyl ethanoate]
Conditions	mass density [kg/m3]	refractive index
[3]	927.16	–
[4]	–	1.3588

CCCCC(=O)OC [methyl pentanoate] + CC(C)CC(C)(C)C
Conditions	excess molar enthalpy [kcal/mol]	mass density [kg/m3]
[1], x2 = 0.0438	0.0344	–
[1], x2 = 0.0963	0.0672	–
[1], x2 = 0.1589	0.105	–
[1], x2 = 0.2206	0.137	–
[1], x2 = 0.2692	0.159	–
[1], x2 = 0.3311	0.177	–
[1], x2 = 0.3825	0.191	–
[1], x2 = 0.436	0.201	–
[1], x2 = 0.4818	0.207	–
[1], x2 = 0.5239	0.211	–
[1], x2 = 0.5638	0.212	–
[1], x2 = 0.5679	0.211	–
[1], x2 = 0.6024	0.208	–
[1], x2 = 0.6258	0.205	–
[1], x2 = 0.7031	0.189	–
[1], x2 = 0.7813	0.157	–
[1], x2 = 0.8452	0.121	–
[1], x2 = 0.9243	0.071	–
[2], x2 = 0	–	884.84
[2], x2 = 0.0537	–	871.44
[2], x2 = 0.1588	–	846.38
[2], x2 = 0.2505	–	825.53
[2], x2 = 0.3544	–	803.1
[2], x2 = 0.4518	–	783.06
[2], x2 = 0.4984	–	773.84
[2], x2 = 0.5417	–	765.44
[2], x2 = 0.642	–	746.75
[2], x2 = 0.6854	–	738.97
[2], x2 = 0.7425	–	728.98
[2], x2 = 0.7967	–	719.79
[2], x2 = 0.8148	–	716.75
[2], x2 = 0.8415	–	712.32
[2], x2 = 0.8779	–	706.53
[2], x2 = 0.8999	–	702.99
[2], x2 = 0.9409	–	696.52

CCCCC(=O)OC [methyl pentanoate]
Conditions	mass density [kg/m3]	refractive index
[3]	884.84	–
[4]	–	1.3968

CCCCCCCC [octane] + CCCC(=O)OC
Conditions	mass density [kg/m3]
[2], x1 = 1	698.58

CC(C)CC(C)(C)C [2,2,4-trimethylpentane] + COC(C)=O
Conditions	mass density [kg/m3]
[2], x1 = 1	687.75

CC(C)CC(C)(C)C [2,2,4-trimethylpentane] + CCCC(=O)OC
Conditions	mass density [kg/m3]
[2], x1 = 1	687.75

CCCCC(=O)OC [methyl pentanoate] + CCCCCCCC
Conditions	excess molar enthalpy [kcal/mol]	mass density [kg/m3]
[1], x2 = 0.0427	0.0387	–
[1], x2 = 0.0951	0.0805	–
[1], x2 = 0.1523	0.122	–
[1], x2 = 0.2098	0.158	–
[1], x2 = 0.2677	0.187	–
[1], x2 = 0.3234	0.211	–
[1], x2 = 0.377	0.228	–
[1], x2 = 0.4266	0.24	–
[1], x2 = 0.4619	0.249	–
[1], x2 = 0.4695	0.249	–
[1], x2 = 0.5113	0.252	–
[1], x2 = 0.5126	0.25	–
[1], x2 = 0.5411	0.249	–
[1], x2 = 0.5701	0.248	–
[1], x2 = 0.6364	0.236	–
[1], x2 = 0.709	0.212	–
[1], x2 = 0.7745	0.181	–
[1], x2 = 0.8541	0.131	–
[1], x2 = 0.9325	0.0547	–
[2], x2 = 0	–	884.84
[2], x2 = 0.0514	–	872.35
[2], x2 = 0.1005	–	860.71
[2], x2 = 0.161	–	846.85
[2], x2 = 0.2134	–	835.46
[2], x2 = 0.2601	–	825.47
[2], x2 = 0.3084	–	815.53
[2], x2 = 0.3625	–	804.47
[2], x2 = 0.4427	–	788.93
[2], x2 = 0.4558	–	786.45
[2], x2 = 0.5104	–	776.34
[2], x2 = 0.5504	–	769.1
[2], x2 = 0.6116	–	758.45
[2], x2 = 0.6541	–	751.22
[2], x2 = 0.7081	–	742.25
[2], x2 = 0.7535	–	734.86
[2], x2 = 0.8013	–	727.38
[2], x2 = 0.8518	–	719.71
[2], x2 = 0.9059	–	711.73
[2], x2 = 0.9521	–	705.03
